Paper PMC12860872, “Preclinical evaluation of DOTAGA.Glu.(FAPI)2 and DO3A.Glu.(FAPI)2 as theranostics with human dosimetry extrapolation to lutetium-177 and terbium-161 analogs” (European Journal of Nuclear Medicine and Molecular Imaging, 2025)
Several values for one entry are separate records, joined by “and”; a condition that tells them apart may be missing. Equal entries are not always repeated.

Assay: Extrapolated human dosimetry (OLINDA/EXM, ICRP-89 phantoms)
Experimental: To address inter-animal variability, the TIACs for each source organ were calculated from both the mean nTACs and the nTACs obtainend from fitting the mean ± 1 standard deviation (SD) of the normalized time-activity data, providing upper and lower bounds.
The mice-to-human TIAC extrapolation accounted for species-specific differences in relative source organ masses, m(organ), as compared to the total body weight (WB), for the mice (m) and human (h) models respectively.
(§1) The human organ masses, m(organ)h, were obtained from ICRP-89 adult male and female reference phantoms, while the murine organ masses, m(organ)m, were derived from the standard MOBY mouse model. The extrapolated human TIACs, TIACh were entered in the OLINDA/EXM software to compute the absorbed doses to target organs and the effective dose for adult male, female, and gender-averaged human models. […]
The TIACs, for [177Lu]Lu-DOTAGA.Glu.(FAPI)2 and [177Lu]Lu-DO3A.Glu.(FAPI)2, were determined by time integration of the nTACs. To account for the inter-animal variability, the TIACs for each source organ were calculated using both the mean nTACs and the nTACs obtainend from fitting the mean ±1 standard deviation (SD) of the normalized time-activity data. This approach provided the upper and the lower bounds for the estimated TIACs.
The mice-to-human TIAC extrapolation was obtained considering the different (species-specific) relative source organ masses, m(organ), as compared to the total body weight (WB), for the mice (m) and human (h) models respectively.
as §1, with “the” for “ICRP-89”, “models phantoms defined in ICRP-89,” for “phantoms,”, “TIACs values, TIACh, for each source organ” for “TIACs, TIACh”, “input into the kinetic module of” for “entered in”, “software (version 2.1, HERMES Medical Solutions AB, Stockholm, Sweden)” for “software”

[1] = ICRP 89 Adult Female, extrapolated
[2] = ICRP 89 Adult Male, extrapolated

Absorbed dose (AD average) Adrenals [1]: 2.06E-02 mGy/Mbq | Absorbed dose (AD average) Brain [1]: 4.11E-02 mGy/Mbq | Absorbed dose (AD average) Breasts [1]: 3.94E-02 mGy/Mbq | Absorbed dose (AD average) Esophagus [1]: 4.21E-02 mGy/Mbq | Absorbed dose (AD average) Eyes [1]: 4.11E-02 mGy/Mbq | Absorbed dose (AD average) Gallbladder Wall [1]: 4.47E-02 mGy/Mbq | Absorbed dose (AD average) Heart Wall [1]: 6.03E-02 mGy/Mbq | Absorbed dose (AD average) Left colon [1]: 4.20E-02 mGy/Mbq | Absorbed dose (AD average) Ovaries [1]: 4.17E-02 mGy/Mbq | Absorbed dose (AD average) Rectum [1]: 4.17E-02 mGy/Mbq | Absorbed dose (AD average) Right colon [1]: 4.24E-02 mGy/Mbq | Absorbed dose (AD average) Small Intestine [1]: 4.17E-02 mGy/Mbq | Absorbed dose (AD average) Stomach Wall [1]: 4.21E-02 mGy/Mbq | Absorbed dose (AD average) Thymus [1]: 4.16E-02 mGy/Mbq | Absorbed dose (AD average) Thyroid [1]: 4.05E-02 mGy/Mbq | Absorbed dose (AD average) Urinary Bladder Wall [1]: 4.10E-02 mGy/Mbq | Absorbed dose (AD average) Uterus [1]: 4.14E-02 mGy/Mbq | Effective dose (average) [1]: 5.28E-02 | Absorbed dose (AD average) Adrenals [2]: 1.63E-02 mGy/Mbq | Absorbed dose (AD average) Brain [2]: 2.76E-02 mGy/Mbq | Absorbed dose (AD average) Esophagus [2]: 2.88E-02 mGy/Mbq | Absorbed dose (AD average) Eyes [2]: 2.76E-02 mGy/Mbq | Absorbed dose (AD average) Gallbladder Wall [2]: 3.50E-02 mGy/Mbq | Absorbed dose (AD average) Heart Wall [2]: 5.00E-02 mGy/Mbq | Absorbed dose (AD average) Left colon [2]: 1.18E-01 mGy/Mbq | Absorbed dose (AD average) Prostate [2]: 2.77E-02 mGy/Mbq | Absorbed dose (AD average) Rectum [2]: 1.17E-01 mGy/Mbq | Absorbed dose (AD average) Right colon [2]: 7.38E-02 mGy/Mbq | Absorbed dose (AD average) Stomach Wall [2]: 4.15E-02 mGy/Mbq | Absorbed dose (AD average) Testes [2]: 2.65E-02 mGy/Mbq | Absorbed dose (AD average) Thymus [2]: 2.77E-02 mGy/Mbq | Absorbed dose (AD average) Thyroid [2]: 2.76E-02 mGy/Mbq | Absorbed dose (AD average) Urinary Bladder Wall [2]: 2.75E-02 mGy/Mbq | Effective dose (average) (ICRP 89 Adult Male, extrapolated, in mSv/MBq (unit assumed)): 4.69E-02 | higher tissue doses vs. the 177Lu-labeled analogs (human extrapolation, average over tissues): ~ 38%
Structure (SMILES): N#C[C@@H]1CC(F)(F)CN1C(=O)CNC(=O)c1ccnc2ccc(OCCCCNC(=O)CC[C@H](NC(=O)CCC(C(=O)O)N3CCN(CC(=O)[O-])CCN(CC(=O)[O-])CCN(CC(=O)[O-])CC3)C(=O)NCCCCOc3ccc4nccc(C(=O)NCC(=O)N5CC(F)(F)C[C@H]5C#N)c4c3)cc12.[161Tb+3] (stereo partly drawn) [[^161Tb]Tb-DOTAGA.Glu.(FAPI)2]
Absorbed dose (AD average) Kidneys [1]: 6.83E-02 ± 0.003 mGy/Mbq and 6.83E-02 mGy/Mbq | Absorbed dose (AD average) Liver [1]: 2.78E-01 ± 0.02 mGy/Mbq and 2.78E-01 mGy/Mbq | Absorbed dose (AD average) Lungs [1]: 6.37E-02 ± 0.01 mGy/Mbq and 6.37E-02 mGy/Mbq | Absorbed dose (AD average) Osteogenic Cells [1]: 1.23E-01 ± 0.01 mGy/Mbq and 1.23E-01 mGy/Mbq | Absorbed dose (AD average) Pancreas [1]: 5.34E-02 ± 0.003 mGy/Mbq and 5.34E-02 mGy/Mbq | Absorbed dose (AD average) Red Marrow [1]: 4.59E-02 ± 0.01 mGy/Mbq and 4.59E-02 mGy/Mbq | Absorbed dose (AD average) Salivary Glands [1]: 1.73E-01 ± 0.01 mGy/Mbq and 1.73E-01 mGy/Mbq | Absorbed dose (AD average) Spleen [1]: 4.83E-02 ± 0.01 mGy/Mbq and 4.83E-02 mGy/Mbq | Absorbed dose (AD average) Total Body [1]: 6.01E-02 ± 0.01 mGy/Mbq and 6.01E-02 mGy/Mbq | Absorbed dose (AD average) Kidneys [2]: 5.60E-02 ± 0.002 mGy/Mbq and 5.60E-02 mGy/Mbq | Absorbed dose (AD average) Liver [2]: 2.29E-01 ± 0.02 mGy/Mbq and 2.29E-01 mGy/Mbq | Absorbed dose (AD average) Lungs [2]: 5.19E-02 ± 0.004 mGy/Mbq and 5.19E-02 mGy/Mbq | Absorbed dose (AD average) Osteogenic Cells [2]: 1.24E-01 ± 0.01 mGy/Mbq and 1.24E-01 mGy/Mbq | Absorbed dose (AD average) Pancreas [2]: 4.25E-02 ± 0.002 mGy/Mbq and 4.25E-02 mGy/Mbq | Absorbed dose (AD average) Red Marrow [2]: 3.37E-02 ± 0.003 mGy/Mbq and 3.37E-02 mGy/Mbq | Absorbed dose (AD average) Salivary Glands [2]: 1.43E-01 ± 0.01 mGy/Mbq and 1.43E-01 mGy/Mbq | Absorbed dose (AD average) Small Intestine [2]: 5.69E-02 ± 0.02 mGy/Mbq and 5.69E-02 mGy/Mbq | Absorbed dose (AD average) Spleen [2]: 3.92E-02 ± 0.01 mGy/Mbq and 3.92E-02 mGy/Mbq | Absorbed dose (AD average) Total Body [2]: 4.51E-02 ± 0.01 mGy/Mbq and 4.51E-02 mGy/Mbq
